Experimental data taken from patent publication US10556907B2 (AbbVie Inc., priority 2015, dated 2020).
Structures can show the parent of a compound that is named as a salt.

What was measured:
Assay in all cases: Method 1: intracellular Ca2+ release (FLIPR, Calcium 5) in recombinant CHO-K1 cells
Assay type in all cases: cell-based
human S1PR1 receptor = target: T1, human S1PR1 receptor (Homo sapiens, UniProt P21453); details: (1): determined with method 1; read-out: S1P1 EC50
T1 construct: host or cells: CHO-K1
In short: (§1)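 Potency here reflects Ca2+ release in recombinant CHO-K1 cells carrying Gq/i5, measured by Calcium 5 fluorescence on FLIPR at RT in pH 7.4 Hepes-buffered HBSS with probenecid. EC50 values were fitted after scaling to phospho-fingolimod.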

human S1PR4 receptor = target: T2, human S1PR4 receptor (Homo sapiens, UniProt O95977); details: (1): determined with method 1; read-out: S1P4 EC50
T2 construct: host or cells: CHO-K1
T2 sequence (O95977 1-384): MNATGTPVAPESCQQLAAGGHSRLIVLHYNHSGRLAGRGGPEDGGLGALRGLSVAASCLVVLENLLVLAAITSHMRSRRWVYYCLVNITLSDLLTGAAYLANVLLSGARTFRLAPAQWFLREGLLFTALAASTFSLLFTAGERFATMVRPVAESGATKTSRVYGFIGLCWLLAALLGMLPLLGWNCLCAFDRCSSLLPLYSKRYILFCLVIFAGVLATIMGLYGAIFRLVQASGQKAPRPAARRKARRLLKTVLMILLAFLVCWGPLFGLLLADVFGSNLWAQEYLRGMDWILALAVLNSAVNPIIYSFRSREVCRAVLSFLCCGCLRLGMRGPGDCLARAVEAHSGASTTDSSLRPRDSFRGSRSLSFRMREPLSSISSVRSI
In short: as §1

human S1PR5 receptor = target: T3, human S1PR5 receptor (Homo sapiens, UniProt Q9H228); details: agonist potency, determined with method 1 (symbols A-D); read-out: S1P5 EC50 range
T3 construct: host or cells: CHO-K1
In short: as §1

human S1PR3 receptor = target: T4, human S1PR3 receptor (Homo sapiens, UniProt Q99500); details: (1): determined with method 1; read-out: S1P3 EC50
T4 construct: host or cells: CHO-K1
In short: as §1

T1 sequence (P21453 whole entry): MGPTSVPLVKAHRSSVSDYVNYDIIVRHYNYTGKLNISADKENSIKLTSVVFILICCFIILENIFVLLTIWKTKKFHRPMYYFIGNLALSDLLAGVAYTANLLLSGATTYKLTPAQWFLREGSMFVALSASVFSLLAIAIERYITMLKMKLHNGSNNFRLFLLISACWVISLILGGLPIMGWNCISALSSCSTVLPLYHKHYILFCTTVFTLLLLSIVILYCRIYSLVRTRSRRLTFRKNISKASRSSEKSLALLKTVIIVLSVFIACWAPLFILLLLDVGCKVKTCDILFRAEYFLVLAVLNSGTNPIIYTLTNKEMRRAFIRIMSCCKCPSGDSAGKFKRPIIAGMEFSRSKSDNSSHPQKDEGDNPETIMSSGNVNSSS
T4 sequence (Q99500 whole entry): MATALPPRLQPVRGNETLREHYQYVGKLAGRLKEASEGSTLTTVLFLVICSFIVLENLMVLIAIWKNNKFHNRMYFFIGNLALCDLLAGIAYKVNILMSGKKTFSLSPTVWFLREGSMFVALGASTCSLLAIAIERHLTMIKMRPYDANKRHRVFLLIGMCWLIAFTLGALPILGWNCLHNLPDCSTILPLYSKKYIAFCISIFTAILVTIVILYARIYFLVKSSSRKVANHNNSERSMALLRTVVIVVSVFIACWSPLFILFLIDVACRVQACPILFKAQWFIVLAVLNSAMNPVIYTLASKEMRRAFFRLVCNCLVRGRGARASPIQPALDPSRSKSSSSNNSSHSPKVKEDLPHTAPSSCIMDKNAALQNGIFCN
T3 sequence (Q9H228 whole entry): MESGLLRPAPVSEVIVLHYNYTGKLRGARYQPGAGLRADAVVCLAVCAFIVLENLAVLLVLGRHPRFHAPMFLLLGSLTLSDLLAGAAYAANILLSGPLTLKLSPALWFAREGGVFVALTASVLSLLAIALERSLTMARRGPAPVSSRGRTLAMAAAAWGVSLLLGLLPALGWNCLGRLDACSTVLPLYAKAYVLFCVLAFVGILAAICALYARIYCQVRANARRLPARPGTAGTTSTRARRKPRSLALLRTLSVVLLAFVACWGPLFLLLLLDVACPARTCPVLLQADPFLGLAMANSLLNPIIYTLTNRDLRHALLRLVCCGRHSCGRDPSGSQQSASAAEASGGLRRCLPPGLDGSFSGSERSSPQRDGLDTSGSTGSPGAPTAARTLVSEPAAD

Row | Structure (SMILES) | EC50 (human S1PR1 receptor) [µM] | EC50 (human S1PR4 receptor) [µM] | EC50 (human S1PR5 receptor) [µM] | EC50 (human S1PR3 receptor) [µM]
1 | CC(CC(=O)O)CN1CCc2nc(-c3ccc(OCc4c(Cl)cccc4Cl)cc3)ncc2C1 (centres unmarked) [Compound 243, 4-[2-[4-[(2,6-dichlorophenyl)methoxy]phenyl]-7,8-dihydro-5H-pyrido[4,3-d]pyrimidin-6-yl]-3-methyl-butanoic acid 2,2,2-trifluoroacetic acid salt] | > 1 | > 1 | < 0.01 | > 1
2 | Cc1cccc(C)c1COc1ccc(-c2ncc3c(n2)CCN(CC(=O)O)C3)cc1 [Compound 33, 2-(2-(4-((2,6-dimethylbenzyl)oxy)phenyl)-7,8-dihydropyrido[4,3-d]pyrimidin-6(5H)-yl)acetic acid] | > 1 | < 1 | 0.1 to 1 | < 1
3 | O=C(O)CCN1CCc2cc(-c3ccc(OCc4cccc(Cl)c4)cc3)ncc2C1 [Compound 175, 3-(6-(4-((3-chlorobenzyl)oxy)phenyl)-3,4-dihydro-2,7-naphthyridin-2(1H)-yl)propanoic acid] | > 1 | > 1 | < 0.01 | > 1
4 | CC(CC(=O)O)CN1CCc2nc(-c3ccc(OCc4ccccc4F)cc3)ncc2C1 (centres unmarked) [Compound 235, 4-[2-[4-[(2-fluorophenyl)methoxy]phenyl]-7,8-dihydro-5H-pyrido[4,3-d]pyrimidin-6-yl]-3-methyl-butanoic acid 2,2,2-trifluoroacetic acid salt] | < 1 | > 1 | < 0.01 | > 1
5 | C[C@H](CC(=O)O)CN1CCc2nc(-c3ccc(CCc4ccc(Cl)cc4)cc3)ncc2C1 [Compound 237, (R)-4-(2-(4-(4-chlorophenethyl)phenyl)-7,8-dihydropyrido[4,3-d]pyrimidin-6(5H)-yl)-3-methylbutanoic acid] | > 1 | > 1 | < 0.01 | > 1
6 | Cc1ccc(C(F)(F)F)cc1COc1ccc(-c2ncc3c(n2)CCN(CCC(=O)O)C3)cc1 [Compound 88, 3-(2-(4-((2-methyl-5-(trifluoromethyl)benzyl)oxy)phenyl)-7,8-dihydropyrido[4,3-d]pyrimidin-6(5H)-yl)propanoic acid] | > 1 | > 1 | < 0.01 | > 1
7 | O=C(O)C1CC(N2CCc3nc(C#Cc4ccccc4)ccc3C2)C1 (centres unmarked) [Compound 119, 3-(2-(phenylethynyl)-7,8-dihydro-1,6-naphthyridin-6(5H)-yl)cyclobutanecarboxylic acid] | > 1 | > 1 | 1 to 10 | > 1
8 | O=C(O)C1CC(N2CCc3nc(C#Cc4cccc(Cl)c4)ccc3C2)C1 (centres unmarked) [Compound 128, 3-(2-((3-chlorophenyl)ethynyl)-7,8-dihydro-1,6-naphthyridin-6(5H)-yl)cyclobutanecarboxylic acid] | > 1 | > 1 | 1 to 10 | > 1
9 | O=C(O)CCN1CCc2cc(-c3ccc(OCc4cccc(F)c4)cc3)ncc2C1 [Compound 176, 3-(6-(4-((3-fluorobenzyl)oxy)phenyl)-3,4-dihydro-2,7-naphthyridin-2(1H)-yl)propanoic acid] | > 1 | > 1 | < 0.01 | > 1
10 | CCc1cccc(Cl)c1COc1ccc(-c2ncc3c(n2)CCN(CC(=O)O)C3)cc1 [Compound 35, 2-(2-(4-((2-chloro-6-ethylbenzyl)oxy)phenyl)-7,8-dihydropyrido[4,3-d]pyrimidin-6(5H)-yl)acetic acid] | < 1 | < 1 | 0.1 to 1 | < 1
11 | O=C(O)C1CC(N2CCc3nc(C#Cc4cc(F)cc(F)c4)ncc3C2)C1 (centres unmarked) [Compound 61, 3-(2-((3,5-difluorophenyl)ethynyl)-7,8-dihydropyrido[4,3-d]pyrimidin-6(5H)-yl)cyclobutanecarboxylic acid] | > 1 | > 1 | 1 to 10 | > 1
